Experimental data taken from US20070197552A1, “Method and composition for treatment of diabetes, hypertension, chronic heart failure and fluid retentive states” (Novo Nordisk A/S, priority 2002, published 2007).
Where a name gives a salt, the structure may show the parent alone.

How the values were obtained:
[1] = system: Non-fasted anaesthetised pigs; experiment: In vivo testing of combination treatment: GLP-1 infusion and iv glucose load under DPP IV inhibition, with and without NEP 24.11 inhibition; parameters: species or system pig
Description: Non-fasted anaesthetised pigs (n=5) were given valine-pyrrolidide (250 μmol/kg; V) to inhibit DPP IV activity throughout the experiment. An intraveneous (iv) infusion of GLP-1 (0.75 pmol/kg/min) was started, during which an iv glucose load (0.2 g/kg over 9 min) was given. 90 min after the end of the first GLP-1 infusion, candoxatril was administered iv (5 mg/kg; C), and the protocol (GLP-1 and glucose infusion) was repeated. In addition, during both GLP-1 infusions, simultaneous blood samples were taken from the carotid artery, the renal, femoral, hepatic and portal veins for determination of arterio-venous GLP-1 concentration differences. Samples were analysed for blood glucose, insulin, glucagon and GLP-1 concentrations.

[2] = anaesthetised pigs, iv GLP-1 infusion

Cn1c(=O)c2c(nc(N3CC[C@H](N)C3)n2Cc2ccccc2)n(C)c1=O (as salt: HCl) [Example 3, (S) 8-(3-Aminopyrrolidin-1-yl)-7-benzyl-1,3-dimethyl-3,7-dihydropurine-2,6-dione]
melting point: 166 to 169 °C

Cn1c(=O)c2c(nc(N3CC[C@H](N)C3)n2Cc2ccccc2Br)n(C)c1=O (as salt: HCl) [Example 12, (S) 8-(3-Aminopyrrolidin-1-yl)-7-(2-bromobenzyl)-1,3-dimethyl-3,7-dihydropurine-2,6-dione]
melting point: 215 to 217 °C

Cn1c(=O)c2c(nc(N3CC[C@H](N)C3)n2Cc2ccccc2C#N)n(C)c1=O (as salt: HCl) [Example 8, (S) 2-(8-(3-Aminopyrrolidin-1-yl)-1,3-dimethyl-2,6-dioxo-1,2,3,6-tetrahydropurin-7-ylmethyl)benzonitrile]
melting point: 104 to 117 °C

CC(C)[C@H](N)C(=O)N1CCCC1 [VP, valine-pyrrolidide]
plasma levels of GLP-1 (plateau level) ([1]; anaesthetised pigs n=5, iv GLP-1 infusion 0.75 pmol/kg/min, valine-pyrrolidide 250 μmol/kg, candoxatril 5 mg/kg iv, FIG. 1): 73 ± 13 pmol/L
glucagon concentrations ([1]; anaesthetised pigs, 20 min period following C administration, before start of the GLP-1 infusion, FIG. 4): 9 ± 2 pmol/L
insulin secretion (AUC27-67 min) ([1]; anaesthetised pigs, GLP-1 and glucose infusion, FIG. 3): 3606 ± 668 pmol·min/L
renal clearance (organ extraction) of GLP-1 ([1]; anaesthetised pigs, calculated from arterio-venous GLP-1 concentration differences): 58.7±4.3%
metabolic clearance rate of GLP-1 [1, 2]: 25.1 ± 3.9 mL/min/kg
plasma t½ of GLP-1 [1, 2]: 2.5 ± 0.2 min
glucose excursion (ΔAUC2-77 min) ([1]; anaesthetised pigs, iv glucose load 0.2 g/kg over 9 min during GLP-1 infusion, FIG. 2): 59 ± 4 mmol·min/L
glucose elimination rate ([1]; anaesthetised pigs, iv glucose load during GLP-1 infusion): 6.6±0.5 %/min
